Experiment: Anticancer human tumor 997537-175-T-J1-PDC patient-derived colon adenocarcinoma cell line growth inhibition [POLQ]
Conditions: 997537-175-T-J1-PDC complex spheroid viability, combination with POLQ inhibitors; for IC50: curve of first compound; for viability, T/C: stronger effect = lower value; active means viability on the fitted dose curve at most 10% of control; inactive means the rest
Procedure, shortened: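 PDC + HUVEC + MSC complex spheroids; POLQ inhibitors ± partner drugs; top conc. at/near clinical Cmax, else 10 microM (SN-38 1 microM), half-log dilutions; 37 degrees C, 5% CO2.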
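Further: luminescence signal used as a surrogate for viable cells; spheroids exposed to drugs for seven days before readout.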

CC(=O)O[C@H]1C(=O)[C@@]2(C)[C@H]([C@H](OC(=O)c3ccccc3)[C@]3(O)C[C@H](OC(=O)[C@H](O)[C@@H](NC(=O)c4ccccc4)c4ccccc4)C(C)=C1C3(C)C)[C@]1(OC(C)=O)CO[C@@H]1C[C@@H]2O + Nc1ccc(C#CCN(C(=O)Cc2ncc(C(F)(F)F)cc2C(F)(F)F)c2ccc(F)cc2)nn1
0.0185 µM: IC50 (second compound 10 µM)
0.0148 µM: IC50 (second compound 1 µM)
0.027 µM: IC50 (second compound 0.0316 µM)
0.0168 µM: IC50 (second compound 0.316 µM)
0.0325 µM: IC50 (second compound 3.16 µM)
inactive: viability, T/C (second compound 0.0316 µM, first compound 0.00949 µM) 50.5% | viability, T/C (second compound 0.0316 µM, first compound 0.03 µM) 57.6% | viability, T/C (second compound 0.0316 µM, first compound 0.0949 µM) 32.5% | viability, T/C (second compound 0.0316 µM, first compound 0.3 µM) 55.7% | viability, T/C (second compound 0.0316 µM, first compound 0.949 µM) 33.8% | viability, T/C (second compound 0.0316 µM, first compound 3 µM) 34.3% | viability, T/C (second compound 0.1 µM, first compound 0.00949 µM) 70% | viability, T/C (second compound 0.1 µM, first compound 0.03 µM) 28.4% | viability, T/C (second compound 0.1 µM, first compound 0.0949 µM) 58% | viability, T/C (second compound 0.1 µM, first compound 0.3 µM) 46.9% | viability, T/C (second compound 0.1 µM, first compound 0.949 µM) 23.3% | viability, T/C (second compound 0.1 µM, first compound 3 µM) 23.3% | viability, T/C (second compound 0.316 µM, first compound 0.00949 µM) 69.7% | viability, T/C (second compound 0.316 µM, first compound 0.03 µM) 27.3% | viability, T/C (second compound 0.316 µM, first compound 0.0949 µM) 27.9% | viability, T/C (second compound 0.316 µM, first compound 0.3 µM) 16.8% | viability, T/C (second compound 0.316 µM, first compound 0.949 µM) 41.3% | viability, T/C (second compound 0.316 µM, first compound 3 µM) 37.1% | viability, T/C (second compound 1 µM, first compound 0.00949 µM) 55.2% | viability, T/C (second compound 1 µM, first compound 0.03 µM) 44.6% | viability, T/C (second compound 1 µM, first compound 0.0949 µM) 31.6% | viability, T/C (second compound 1 µM, first compound 0.3 µM) 25.8% | viability, T/C (second compound 1 µM, first compound 0.949 µM) 30.1% | viability, T/C (second compound 1 µM, first compound 3 µM) 38.3% | viability, T/C (second compound 3.16 µM, first compound 0.00949 µM) 54.5% | viability, T/C (second compound 3.16 µM, first compound 0.03 µM) 48.2% | viability, T/C (second compound 3.16 µM, first compound 0.0949 µM) 44.2% | viability, T/C (second compound 3.16 µM, first compound 0.3 µM) 36% | viability, T/C (second compound 3.16 µM, first compound 0.949 µM) 24.6% | viability, T/C (second compound 3.16 µM, first compound 3 µM) 31% | viability, T/C (second compound 10 µM, first compound 0.00949 µM) 68.6% | viability, T/C (second compound 10 µM, first compound 0.03 µM) 35.8% | viability, T/C (second compound 10 µM, first compound 0.0949 µM) 37.6% | viability, T/C (second compound 10 µM, first compound 0.3 µM) 33.4% | viability, T/C (second compound 10 µM, first compound 0.949 µM) 38.5% | viability, T/C (second compound 10 µM, first compound 3 µM) 23.9%
0.0501 µM: IC50 (second compound 0.1 µM)

From PubChem BioAssay AID1963825 (Molecular Pharmacology Branch, DTP, NCI, 2024)
